{"source": "paper PMC9853328", "about": "“Potent Platinum(IV) Prodrugs That Incorporate a Biotin Moiety to Selectively Target Cancer Cells” (Pharmaceutics, 2022)", "key": {"[1]": {"test_system": "A2780 ovarian cancer cells", "test": "MTT in vitro cytotoxicity assay, A2780", "type": "cell-based", "conditions": "72 h drug exposure, n = 3, read-out: GI50 ± SEM, A2780", "how_it_was_run": "(§1)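 Cells plated 24 h before 72 h exposure to test agent in 8-point dose–response, in duplicate. Growth read by MTT absorbance at 540 nm; GI50 derived from optical density difference between day 0 and end of exposure, mean ± SEM of three separate experiments.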"}, "[2]": {"test_system": "ADDP (subclone of A2780) versus A2780 ovarian cancer cell lines", "test": "Resistance factor, GI50 in ADDP/GI50 in A2780", "type": "cell-based"}, "[3]": {"test_system": "MIA pancreas cancer cells", "test": "MTT in vitro cytotoxicity assay, MIA", "type": "cell-based", "conditions": "72 h drug exposure, n = 3, read-out: GI50 ± SEM, MIA", "how_it_was_run": "as §1"}, "[4]": {"test": "Reduction study with ascorbic acid via 1H NMR", "type": "physicochemical", "conditions": "5 mM complex in D2O with 10X PBS, ascorbic acid 5 mM, 37 °C, four experiments", "procedure": "To confirm that the reduction of these prodrugs occurs and the axially bound biotin ligands are released from the cytotoxic platinum(II) core, reduction studies were undertaken using ^1H NMR experiments for 3. The complex was prepared in 5 mM D2O with 10X PBS. Ascorbic acid (5 mM) was added, and the reduction was monitored at 37 °C by ^1H NMR experiments. Over time, the resonances corresponding to the platinum(IV) species decreased, while new resonances corresponding to the platinum(II) species increased (Figure 7)."}, "[5]": {"test_system": "A431 skin cancer cells", "test": "MTT in vitro cytotoxicity assay, A431", "type": "cell-based", "conditions": "72 h drug exposure, n = 3, read-out: GI50 ± SEM, A431", "how_it_was_run": "as §1"}, "[6]": {"test_system": "cisplatin-resistant ADDP ovarian (subclone of A2780) cancer cells", "test": "MTT in vitro cytotoxicity assay, ADDP", "type": "cell-based", "conditions": "72 h drug exposure, n = 3, read-out: GI50 ± SEM, ADDP", "how_it_was_run": "as §1"}, "[7]": {"test": "Lipophilicity by RP-HPLC (logkw)", "type": "physicochemical", "conditions": "capacity factor in 100% water", "procedure": "HPLC experiments were carried out using an Agilent Technologies (Melbourne, Australia) 1260 Infinity instrument, equipped with a Phenomenex (Sydney, Australia) Onyx^TM Monolithic C18 reverse phase column (100 × 4.6 mm, 130 Å). The mobile phase was made up of 0.06% TFA in water (solvent A) and 0.06% TFA in an acetonitrile:water (9:1) mixture (solvent B). Samples were eluted over a gradient of 0–100% (% B) for 15 min, at a flow rate of 1 mL/min, with a sample injection volume of 10 µL. Eluting peaks were detected using a PDA at 254 nm.\nFor lipophilicity experiments, RP-HPLC was utilised to determine the logkw of each compound, similarly to what has been previously published for similar complexes. Samples were eluted at various isocratic percentages, ranging from 18–30% solvent B. To determine the dead volume of the column, potassium iodide was used as an external dead volume marker. The retention time of each sample in each isocratic run ( tr ) and the dead volume time ( t0 ) were both substituted in Equation (1) to calculate the capacity factor ( k ). (1) k=tr−t0/t0\nFollowing this, logk was plotted against the percentage of ACN. For each complex, a minimum of four concentrations of ACN were used. This produced a linear graph with the equation in the form:(2) logk=Sφ+logkw where S is the slope, φ is the percentage of ACN, and logkw is the y-intercept, which represents the capacity factor of the compound in 100% water.\nIt is important to explore the lipophilicity of a drug, as it is widely believed that increased lipophilicity results in greater cellular accumulation. To understand the lipophilicity of 1–4, RP-HPLC was utilised to determine the logkw of each complex. To calculate this, each complex was eluted at different isocratic percentages, whereby the retention time was used in Equation (1) to calculate the capacity factor (k). The percentage of the organic solvent was then plotted against log k for each isocratic percentage, producing a linear equation that allowed for logkw to be deduced using Equation (2) (Figure S38). The logkw value represents the capacity factor of the compound in 100% water and can be used to compare a series of compounds. Since 1–4 comprise the same axially bound ligand, biotin, the lipophilicity was influenced by the groups on the PL. The logkw of each complex is presented in Table 1, with their corresponding PL. The increasing lipophilicity of the complexes followed the order: 1 < 4 < 2 < 3."}, "[8]": {"test_system": "panel of cancer cell lines", "test": "MTT cytotoxicity averaged across the panel of cancer cell lines", "type": "cell-based"}, "[9]": {"test_system": "non-cancerous MCF10A breast cell line", "test": "MTT in vitro cytotoxicity assay, MCF10A", "type": "cell-based", "conditions": "72 h drug exposure, n = 3, read-out: GI50 ± SEM, MCF10A", "how_it_was_run": "as §1"}, "[10]": {"test_system": "MCF-7 breast cancer cells", "test": "MTT in vitro cytotoxicity assay, MCF-7", "type": "cell-based", "conditions": "MTT, 72 h drug exposure, n = 3; read-out: GI50 ± SEM, MCF-7"}, "[11]": {"test_system": "Du145 prostate cancer cells", "test": "MTT in vitro cytotoxicity assay, Du145", "type": "cell-based", "how_it_was_run": "as §1"}, "[12]": {"test_system": "BE2-C neuroblastoma cells", "test": "MTT in vitro cytotoxicity assay, BE2-C", "type": "cell-based", "conditions": "72 h drug exposure, n = 3, read-out: GI50 ± SEM, BE2-C", "how_it_was_run": "as §1"}}, "note": "“And” between values parts separate entries of the source, which are not always exact repeats. Equal entries are not always repeated.", "data": [{"smiles": "COc1cc[n+]2c3c1ccc1c(OC)cc[n+](c13)[Pt-2]21([OH])([O]C(=O)CCCC[C@@H]2SC[C@@H]3NC(=O)N[C@@H]32)[NH2+][C@H]2CCCC[C@@H]2[NH2+]1.O=[N+]([O-])[O-].O=[N+]([O-])[O-]", "note": "[Complex 3, [Pt(4,7-dimethoxy-1,10-phenanthroline)(1S,2S-diaminocyclohexane)(biotin)(hydroxido)](NO3)2]", "values": [{"measurement": "GI50", "setting": "[1]", "result": "370 ± 30", "unit": "nM"}, {"measurement": "Resistance factor (RF)", "setting": "[2]", "result": "0.459 and 0.46"}, {"measurement": "GI50", "setting": "[3]", "result": "180 ± 10", "unit": "nM"}, {"measurement": "reduction half-life", "setting": "[4]", "result": "~ 30 ± 7 min and ~ 30 min"}, {"measurement": "GI50", "setting": "[5]", "result": "820 ± 220", "unit": "nM"}, {"measurement": "GI50", "setting": "[6]", "result": "170 ± 20", "unit": "nM"}, {"measurement": "logkw", "setting": "[7]", "result": 0.96}, {"measurement": "enhanced activity compared to platinum(II) precursor across the cancer cell lines", "setting": "[8]; across all cancer cell lines", "result": "~ 1.3 fold"}, {"measurement": "fold more active than cisplatin, on average, against all cancer cells", "setting": "[8]; average over cancer cell lines", "result": 8, "unit": "fold"}, {"measurement": "GI50", "setting": "[8]; calculated from the panel of cancer cell lines tested (Table S4)", "result": 459, "unit": "nM"}, {"measurement": "GI50", "setting": "[9]", "result": "300 ± 80", "unit": "nM"}, {"measurement": "GI50", "setting": "[10]", "result": "99 ± 41", "unit": "nM"}, {"measurement": "GI50", "setting": "[11]; MTT, 72 h drug exposure, n = 3, read-out: GI50 ± SEM, Du145", "result": "120 ± 40", "unit": "nM"}, {"measurement": "number-fold potency against cisplatin, Du145 prostate", "setting": "[11]; ratio of GI50 values, 72 h", "result": 10, "unit": "fold"}, {"measurement": "GI50", "setting": "[12]", "result": "2000 ± 70", "unit": "nM"}]}]}
